The text below walks through data of ChEMBL document CHEMBL4229439, “Design, synthesis and antimycobacterial activity of 3,5-dinitrobenzamide derivatives containing fused ring moieties” (2018).

In brackets after ≈: the same amount, converted by molar mass. Activity calls are given as the source filed them. The rule behind the calls is not given here. Some results are limits rather than exact numbers.

Test [1] concerns Mycobacterium tuberculosis. Put plainly: Antimycobacterial activity against isoniazid/rifampicin-resistant Mycobacterium tuberculosis isolate 16995 up to 10 ug/ml after 7 days by Alamar blue assay. Type of test: functional, organism-based. (In general: Resazurin is reduced to fluorescent resorufin, in cell work by metabolically active cells.)
Test [2] relates to Mycobacterium tuberculosis. As to the kind of experiment: Antimycobacterial activity against isoniazid/rifampicin-resistant Mycobacterium tuberculosis isolate 16995 after 7 days by Alamar blue assay. The class given is functional. The settings on record: isolate 16995, 168 h.
Test [3] concerns Mycobacterium tuberculosis. Put plainly: Antimycobacterial activity against isoniazid/rifampicin-resistant Mycobacterium tuberculosis isolate 16833 up to 10 ug/ml after 7 days by Alamar blue assay. Type of test: functional, organism-based.
In test [4] the test system is Mycobacterium tuberculosis. As to the kind of experiment: Antimycobacterial activity against isoniazid/rifampicin-resistant Mycobacterium tuberculosis isolate 16833 after 7 days by Alamar blue assay. The class given is functional. The settings on record: isolate 16833, 168 h.

Turning to `O=C(NCc1ccc2c(c1)CNC2)c1cc([N+](=O)[O-])cc([N+](=O)[O-])c1`, the outcome in test [1] and in test [3] was inactive. Further, the MIC in test [2] and in test [4] was greater than 10 µg/mL in each case.

As to `NNC(=O)c1ccncc1` [ISONIAZID], the minimal inhibitory concentration (MIC) in test [2] and in test [4] was greater than 40 µg/mL in each case.

For `O=C(NCc1ccc2c(c1)CCN(Cc1cccc(F)c1)C2)c1cc([N+](=O)[O-])cc([N+](=O)[O-])c1`, the minimal inhibitory concentration (MIC) in test [2] was 0.076 µg/mL (≈ 0.164 µM); in test [4], 0.074 µg/mL (≈ 0.159 µM).

With `O=C(NCc1ccc2c(c1)CCN(Cc1ccc(Cl)cc1)C2)c1cc([N+](=O)[O-])cc([N+](=O)[O-])c1`, the MIC in test [2] turned out to be 0.077 µg/mL (≈ 0.16 µM); in test [4], 0.143 µg/mL (≈ 0.297 µM).

For the molecule `O=c1nc(N2CCN(CC3CCCCC3)CC2)sc2c([N+](=O)[O-])cc(C(F)(F)F)cc12` [MACOZINONE], the minimal inhibitory concentration (MIC) in test [2] and in test [4] was less than 0.016 µg/mL each time.

In the case of `O=C(NCc1ccc2c(c1)CCN(c1ccc(C(F)(F)F)cc1)C2)c1cc([N+](=O)[O-])cc([N+](=O)[O-])c1`, the results for the MIC in test [2] and in test [4] were 0.302 µg/mL (≈ 0.603 µM) and 0.152 µg/mL (≈ 0.304 µM), respectively.

For the molecule `O=C(NCc1ccc2c(c1)CN(Cc1ccc(F)cc1)C2)c1cc([N+](=O)[O-])cc([N+](=O)[O-])c1`, the MIC was found to be 0.115 µg/mL (≈ 0.255 µM) in test [2] and 0.073 µg/mL (≈ 0.162 µM) in test [4].

As to `O=C(NCc1ccc2c(c1)CN(c1ccc(F)cc1)C2)c1cc([N+](=O)[O-])cc([N+](=O)[O-])c1`, the MIC in test [2] came to 0.147 µg/mL (≈ 0.337 µM); in test [4], 0.066 µg/mL (≈ 0.151 µM).

For `COc1ccc(CN2Cc3ccc(CNC(=O)c4cc([N+](=O)[O-])cc([N+](=O)[O-])c4)cc3C2)cc1`, the MIC in test [2] was determined as 0.606 µg/mL (≈ 1.31 µM); in test [4], 0.286 µg/mL (≈ 0.618 µM).

With `O=C(NCc1ccc2c(c1)CN(Cc1ccc(C(F)(F)F)cc1)C2)c1cc([N+](=O)[O-])cc([N+](=O)[O-])c1`, the MIC in test [2] stood at 0.308 µg/mL (≈ 0.615 µM); in test [4] it was 0.278 µg/mL (≈ 0.556 µM).

Consider `CO[C@H]1/C=C/O[C@@]2(C)Oc3c(C)c(O)c4c(O)c(c(/C=N/N5CCN(C)CC5)c(O)c4c3C2=O)NC(=O)/C(C)=C\C=C\[C@H](C)[C@H](O)[C@@H](C)[C@@H](O)[C@@H](C)[C@H](OC(C)=O)[C@@H]1C` [RIFAMPIN], for which the MIC in test [2] and in test [4] was greater than 40 µg/mL throughout.

As for `O=C(NCc1ccc2c(c1)CN(Cc1ccc(OC(F)(F)F)cc1)C2)c1cc([N+](=O)[O-])cc([N+](=O)[O-])c1`, the MIC was 0.61 µg/mL (≈ 1.18 µM) in test [2] and 0.565 µg/mL (≈ 1.09 µM) in test [4].

Regarding `O=C(NCc1ccc2c(c1)CCN(c1ccc(F)cc1)C2)c1cc([N+](=O)[O-])cc([N+](=O)[O-])c1`, the MIC in test [2] amounted to 0.078 µg/mL (≈ 0.173 µM); in test [4], 0.074 µg/mL (≈ 0.164 µM).

What is called MIC is the lowest concentration found to suppress growth.
